Data as given in ChEMBL document CHEMBL3612058, “Synthesis and biological evaluation of a new series of 2-amino-3-aroyl thiophene derivatives as agonist allosteric modulators of the A1 adenosine receptor. A position-dependent effect study” (Eur J Med Chem, 2015).
Active and inactive are the calls of the source. The rule behind the calls is not given here.

Legend:
[1] = target: T1, Adenosine receptor A1 (Homo sapiens) (UniProt P30542); assay: Displacement of [3H]DPCPX from human adenosine A1 receptor expressed in CHO cells at 10 uM after 120 mins by scintillation counting; format: cell-based
T1 sequence (whole entry): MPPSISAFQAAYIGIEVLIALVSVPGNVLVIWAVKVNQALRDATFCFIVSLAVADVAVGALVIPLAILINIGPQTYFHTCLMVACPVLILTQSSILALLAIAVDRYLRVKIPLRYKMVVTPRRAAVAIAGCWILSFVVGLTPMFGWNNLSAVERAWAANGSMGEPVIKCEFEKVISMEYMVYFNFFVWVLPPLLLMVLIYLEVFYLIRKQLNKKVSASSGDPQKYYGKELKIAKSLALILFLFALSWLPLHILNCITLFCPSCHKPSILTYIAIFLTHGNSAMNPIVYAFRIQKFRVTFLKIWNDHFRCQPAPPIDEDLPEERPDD

[2] = target: T2, Adenosine receptor A3 (Homo sapiens) (UniProt P0DMS8); assay: Displacement of [3H]-MRE-3008-F20 from human adenosine A3 receptor expressed in CHO cells at 10 uM after 120 mins by scintillation counting; format: cell-based
T2 sequence (whole entry): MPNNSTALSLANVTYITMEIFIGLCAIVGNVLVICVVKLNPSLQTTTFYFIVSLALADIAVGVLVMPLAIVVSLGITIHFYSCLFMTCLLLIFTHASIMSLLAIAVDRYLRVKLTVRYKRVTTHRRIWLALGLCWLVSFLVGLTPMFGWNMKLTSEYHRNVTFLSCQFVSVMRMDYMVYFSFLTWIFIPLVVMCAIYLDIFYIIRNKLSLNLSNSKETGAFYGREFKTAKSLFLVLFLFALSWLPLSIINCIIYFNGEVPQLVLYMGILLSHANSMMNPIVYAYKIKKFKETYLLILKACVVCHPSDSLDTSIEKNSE

[3] = target: T1, Adenosine receptor A1 (Homo sapiens); assay: Effect on dissociation binding rate constant of [3H]-NECA to human adenosine A1 receptor expressed in CHO cells at 1 uM after 45 mins by scintillation spectrometry analysis relative to control; format: cell-based
[4] = target: T1, Adenosine receptor A1 (Homo sapiens); assay: Effect on association binding rate constant of [3H]-NECA to human adenosine A1 receptor expressed in CHO cells at 1 uM after 45 mins by scintillation spectrometry analysis; format: cell-based
[5] = target: T1, Adenosine receptor A1 (Homo sapiens); assay: Binding affinity to human adenosine A1 receptor expressed in CHO cells assessed as fold Bmax shift of [3H]-CCPA at 10 uM after 90 mins by [3H]-CCPA binding assay relative to control; format: cell-based
[6] = Displacement of [3H]-ZM241385 from human adenosine A2 receptor expressed in CHO cells at 10 uM after 120 mins by scintillation counting; format: cell-based
[7] = target: T1, Adenosine receptor A1 (Homo sapiens); assay: Increase of [3H]-NECA affinity to human adenosine A1 receptor expressed in CHO cells at 1 uM after 45 mins by scintillation spectrometry analysis relative to control; format: cell-based
[8] = target: T1, Adenosine receptor A1 (Homo sapiens); assay: Positive allosteric enhancement of human cloned adenosine A1 receptor expressed in CHO cells assessed as inhibition of forskolin-induced cAMP accumulation at 100 nM using [3H]-cAMP by scintillation counting relative to control in presence of 1 pM of CCPA; format: functional, cell-based
[9] = target: T1, Adenosine receptor A1 (Homo sapiens); assay: Binding affinity to human adenosine A1 receptor expressed in CHO cells assessed as fold Ki shift of CCPA at 10 uM after 90 mins by [3H]-CCPA displacement assay relative to control; format: cell-based
[10] = target: T1, Adenosine receptor A1 (Homo sapiens); assay: Ratio of PD81723 to compound for positive allosteric enhancement of human cloned adenosine A1 receptor expressed in CHO cells assessed as inhibition of forskolin-induced cAMP accumulation at 10 uM using [3H]-cAMP by scintillation counting; format: functional, cell-based
[11] = target: T1, Adenosine receptor A1 (Homo sapiens); assay: Positive allosteric enhancement of human cloned adenosine A1 receptor expressed in CHO cells assessed as inhibition of forskolin-induced cAMP accumulation at 10 uM using [3H]-cAMP by scintillation counting relative to control; format: functional, cell-based
Mus musculus [12] = assay: Antinociceptive effect in CD1 mouse assessed as inhibition of formalin-induced pain behavior in paw at 0.3 mg/kg, ip administered 15 mins before formalin challenge measured up to 45 mins relative to control; format: functional
Mus musculus [13] = assay: Antinociceptive effect in CD1 mouse assessed as inhibition of formalin-induced pain behavior in paw at 3 mg/kg, ip administered 15 mins before formalin challenge measured up to 45 mins relative to control; format: functional

| SMILES | inhibition [1] | inhibition [2] | Activity [3] | Activity [4] | fold change (FC) [5] | Activity [7] | inhibition [8] | fold change (FC) [9] | Ratio [10] | inhibition [11] | fold change (FC) [3] | fold change (FC) [7] | inhibition [6] | inhibition in vivo at 0.3 mg/kg (Mus musculus [12]) | inhibition in vivo at 3 mg/kg (Mus musculus [13]) |
| --- | --- | --- | --- | --- | --- | --- | --- | --- | --- | --- | --- | --- | --- | --- | --- |
| Cc1sc(N)c(C(=O)c2cccc(C(F)(F)F)c2)c1C | < 10% | < 10% | inactive | inactive | 1.3 | inactive | 21% | 1.4 |  |  |  |  | < 10% |  |  |
| Nc1sc(-c2ccc(Cl)cc2)c(Cc2ccc(F)cc2)c1C(=O)c1ccc(Cl)cc1 | < 10% | < 10% |  |  | 9.1 |  | 73% | 9.5 | 3 | 75% |  |  | < 10% |  |  |
| Nc1sc(-c2ccccc2)c(Cc2ccc(OC(F)(F)F)cc2)c1C(=O)c1ccc(Cl)cc1 | < 10% | < 10% |  |  | 8.2 |  | 69% | 6.6 | 3 | 68% |  |  | < 10% |  |  |
| Nc1sc(-c2ccc(Cl)cc2)c(Cc2ccc(Cl)cc2)c1C(=O)c1ccc(Cl)cc1 | < 10% | < 10% |  | inactive | 11 |  | 84% | 11.7 | 3 | 81% | 2.5 | 2.3 | < 10% | 49% | 82% |
| Cc1ccc(Cc2c(-c3ccc(F)cc3)sc(N)c2C(=O)c2ccc(Cl)cc2)cc1 | < 10% | < 10% |  |  | 6.5 |  | 62% | 5.6 | 3 | 59% |  |  | < 10% |  |  |
| COc1ccc(-c2sc(N)c(C(=O)c3ccc(Cl)cc3)c2Cc2ccc(SC)cc2)cc1 | < 10% | < 10% |  |  | 6.5 |  | 62% | 6.1 | 3 | 62% |  |  | < 10% |  |  |
| COc1ccc(Cc2c(-c3ccc(OC)cc3)sc(N)c2C(=O)c2ccc(Cl)cc2)cc1 | < 10% | < 10% |  |  | 5.1 |  | 50% | 4.6 | 3 | 52% |  |  | < 10% |  |  |

Now from value to compound, other results behind:

| inhibition [1] | inhibition [2] | Activity [3] | Activity [4] | fold change (FC) [5] | Activity [7] | inhibition [8] | fold change (FC) [9] | Ratio [10] | inhibition [11] | fold change (FC) [3] | fold change (FC) [7] | SMILES | inhibition [6] | inhibition in vivo at 0.3 mg/kg (Mus musculus [12]) | inhibition in vivo at 3 mg/kg (Mus musculus [13]) |
| --- | --- | --- | --- | --- | --- | --- | --- | --- | --- | --- | --- | --- | --- | --- | --- |
| < 10% | < 10% |  |  | 6.4 |  | 64% | 5.6 | 3 | 61% |  |  | Nc1sc(-c2ccccc2)c(Cc2ccc(Cl)cc2)c1C(=O)c1ccc(Cl)cc1 | < 10% |  |  |
| < 10% | < 10% |  |  | 4.8 |  | 47% | 3.5 | 3 | 46% |  |  | COc1ccc(-c2sc(N)c(C(=O)c3ccc(Cl)cc3)c2Cc2ccccc2)cc1 | < 10% |  |  |
| < 10% | < 10% |  |  | 7.3 |  | 63% | 6.9 | 3 | 66% |  |  | COc1cccc(Cc2c(-c3ccccc3)sc(N)c2C(=O)c2ccc(Cl)cc2)c1 | < 10% |  |  |
| < 10% | < 10% |  |  | 9.1 |  | 69% | 8 | 3 | 68% |  |  | CCOc1ccc(Cc2c(-c3ccccc3)sc(N)c2C(=O)c2ccc(Cl)cc2)cc1 | < 10% |  |  |
| < 10% | < 10% |  |  | 4.9 |  | 50% | 4.2 | 3 | 51% |  |  | Nc1sc(-c2ccccc2)c(Cc2ccccc2)c1C(=O)c1ccc(Cl)cc1 | < 10% |  |  |
| < 10% | < 10% |  |  | 9.4 |  | 74% | 8.9 | 3 | 71% |  |  | COc1ccc(Cc2c(-c3ccccc3)sc(N)c2C(=O)c2ccc(Cl)cc2)cc1 | < 10% |  |  |
| < 10% | < 10% |  |  | 6.3 |  | 57% | 5.4 | 3 | 58% |  |  | Nc1sc(-c2ccccc2)c(Cc2ccc(F)cc2)c1C(=O)c1ccc(Cl)cc1 | < 10% |  |  |
| < 10% | < 10% |  |  | 5.6 |  | 51% | 4.9 | 3 | 55% |  |  | COc1ccccc1Cc1c(-c2ccccc2)sc(N)c1C(=O)c1ccc(Cl)cc1 | < 10% |  |  |
